Assay results as given in patent US20040220085A1, “Compositions for nucleic acid delivery” (priority 2003, published 2004).

Experiments:
Format in all cases: cell-based, human
JJ5 breast cancer cells [1] = assay: Growth inhibition assay against JJ5 breast cancer cells; settings: 4 days culture
Method: JJ5 breast cancer cells (prepared from BCBM JJ5) expressing approximately 10^6 epidermal growth factor receptors/cell were incubated with EGF-^111In-labeled transferrin composition, unlabeled hEGF or ^111In-oxine, centrifuged to remove free ligand, then assayed and seeded (10^6 cells/dish) into 35 mm culture dishes. Growth medium was added and the cells were cultured at 37° C./5% CO^2 for 4 days. The cells were then recovered by trypsinization and counted in a hemocytometer. Control dishes contained cells cultured in growth medium containing ^111In-DTPA or growth medium alone.

JJ5 breast cancer cells [2] = assay: Cytotoxicity (colony-forming) assay against JJ5 breast cancer cells; settings: 14 days
Method: JJ5 breast cancer cells were incubated with increasing amounts EGF-^111In-labeled transferrin composition or ^111In-oxine, centrifuged to remove free ligand, assayed and then seeded into 50 mm culture dishes. The number of cells seeded was varied from 3×10^4 to 3×10^6cells to obtain approximately 400 viable colonies/dish taking into account the plating efficiency and the expected level of cytotoxicity. Control dishes contained JJ5 breast cancer cells which were incubated with normal saline. Growth medium was added and the cells were cultured at 37° C./5% CO^2 for 14 days. The growth medium was removed and the colonies were stained with methylene blue (1% in a 1:1 mixture of ethanol and water) then washed twice. The number of colonies per dish was counted using a manual colony counter (Manostat Corp). The plating efficiency was calculated by dividing the number of colonies observed by the number of cells seeded in each dish. The surviving fraction at increasing amounts of EGF-^111In-labeled transferrin composition or ^111In-oxine was calculated by dividing the plating efficiency for dishes containing treated cells with that observed for control dishes with normal saline.

[3] = system: JJ5 Breast Cancer cells (EGFR); assay: Binding of EGF-111In-labeled transferrin composition to JJ5 breast cancer cells
Method: For the normal breast cell line HBL-100, 8000 EGFR/cell has been reported. The expression of EGFR in breast cancer cell lines has a reported range of 800 EGFR/cell for MCF-7 cells to 10^6 EGFR/cell for MDA-MB-468 cells. […] Utilizing the Auger electron emitter ^111In was used in the initial experiments to illustrate the utility of the invention using EGF-^111In-labeled transferrin compositions. The EGF-^111In-labeled transferrin (0.25-80 ng) was incubated with 1.5×10^6 cells/dish JJ5 Breast Cancer (prepared from BCBM JJ5) cells in 1 mL of 0.1% human serum albumin in 35 mm multiwell culture dishes at 37° C. for 30 minutes. The cells were transferred to a centrifuge tube and centrifuged. The cell pellet was separated from the supernatant and counted in a g-scintillation counter to determine bound (B) and free (F) radioactivity. Non-specific binding was determined by conducting the assay in 100 nM hEGF. The kinetics of binding was determined by incubating 1 ng of EGF-^111In-labeled transferrin composition with 3×10^6 JJ5 Breast Cancer cells at 37° C. and determining the proportion of radioactivity bound to the cells at various times up to 24 hours. Internalized fraction was measured by determining the proportion of radioactivity which could not be displaced from the cell surface by 100 nM hEGF. Cell-associated binding (surface-binding and intracellular accumulation) was expressed as a percentage of medium radioactivity bound per mg of cell study protein.

| Molecule | growth inhibition of the JJ5 cells (JJ5 breast cancer cells [1]; 3.5 pCi/cell) [%] | cell killing (JJ5 breast cancer cells [2]; <6 pCi/cell) | internalization by cancer cells ([3]; JJ5 cells) | number of binding sites ([3]; JJ5 cells) | kinetics of binding to the breast cancer cells ([3]; JJ5 cells, 37° C.) | time retained by the breast cancer cells ([3]; JJ5 cells, 37° C.) | affinity constant for binding to JJ5 cells ([3]; JJ5 cells, 37° C., 30 minutes) [L/mol] | 111In radioactivity lost from the cells in vitro ([3]; over a 24 hour period at 37° C.) [%] | growth inhibition of the JJ5 cells compared to the medium control (JJ5 breast cancer cells [1]; 3.4 pCi/cell) [%] | reduction in cell survival for JJ5 cells (JJ5 breast cancer cells [2]; 8 pCi/cell) [%] |
| --- | --- | --- | --- | --- | --- | --- | --- | --- | --- | --- |
| [In+3].[O-]c1cccc2cccnc12.[O-]c1cccc2cccnc12.[O-]c1cccc2cccnc12 [^111In-oxine, reference compound] | 91 | greater than 99% |  |  |  |  |  |  |  |  |
| EGF-^111In-labeled transferrin composition: human EGF linked to transferrin radiolabeled with the Auger electron emitter 111In at the iron-binding sites |  |  | rapidly internalized | 2.7×10^6 | rapidly bound | at least 24 hours | 8e+08 | < 8 | 83 | 99 |
